Patent US12357711B2, “PSMA binding dual mode radiotracer and therapeutic” (Technische Universität München, priority 2019, dated 2025)

Test system: SCID mice
Assay: Preclinical dosimetry from biodistribution in mice, extrapolated to 70-kg Standard Adult (OLINDA/EXM 1.0)
Format: in vivo
Details: 1.0 h bladder voiding interval
Description: 3-5 mice were injected per timepoint with a mean 25.6±3.6 MBq of 18F-rhPSMA-7 and 28.5±4.8 MBq of 18F-rhPSMA-7.3, respectively. Mice, severe combined immunodeficiency (SCID) were used for the experiments.
Mice were sacrificed at the following timepoints: • ^18F-rhPSMA-7: 10, 20, 40, 60, 120 and 180 minutes after administration. • ^18F-rhPSMA-7.3: 10, 60, 120, 180 and 300 minutes after administration.
Urine, blood, heart, lung, spleen, pancreas, liver, stomach (emptied), small intestine (emptied), large intestine (emptied), kidneys, bladder, testis, fat, muscle (partial, femoral), femur, tail and brain. Urine was collected with a pipette in the CO2 gas chamber. In case of missing urination in the chamber the bladder was aspirated with an insulin syringe. Blood was withdrawn instantly after sacrifice with an insulin syringe from the heart. All other tissues and organs were dissected and transferred directly in plastic containers.
The counting rates of measurement samples were automatically corrected for decay. The radioactivity distribution ratios (unit: percentage of the injected dose (% ID) in the measurement samples were determined using the equation below. The sum of the counting rates from all measurement samples obtained from one mouse was designated as the counting rate for administrated radioactivity.
The radioactivity distribution ratio per unit weight of the measurement sample (unit: % ID/g) excluding urine and feces samples was determined by using the equation below. The weight of the measurement sample was determined by subtraction of the empty measurement container from the container including the sample.
For consistency of statistical calculations for each radiotracer the same number of time-points for ^18F-rhPSMA-7 and ^18F-rhPSMA-7.3 was used. Therefore, for ^18F-rhPSMA-7 the 10 min and 20 min time points were combined creating a 15 min endpoint.
The time-integral of activity for the accumulation in the significant source organs (AUCs) were generated both with numerical integration and physical decay according to J Juan et al., Journal of Pharmaceutical Sciences, 1993, 82:762-763.
In brief, to calculate a human dosimetry from the biodistribution in the mice, an extrapolation was necessary to account for the differences between the animals and humans. Normal-organ radiation doses were estimated for the 70-kg Standard Adult anatomic model using time-depending organ activity concentrations (in percent of the injected dose per gram, % ID/g) and total-body activities measured in the biodistribution studies in mice.
Tissue activity concentrations in mice were converted to tissue fractional activities in the 70-kg Standard Adult using the relative fractional organ masses in the Standard Adult and the “standard” 25-gramm mouse. Time-dependent total-body activity was fit to an exponential function and the difference between the injected activity and the total-body activity was assumed to be excreted to the urine because activity concentrations in the liver and GI tracer were low at all time points studied.
Organ residence time was calculated by numerical integration using the trapezoidal rule and the rest-of-body ^18F residence times was calculated as the difference between the total-body residence time and the sum of the organ and urine residence times. The bladder contents residence time was estimated using the dynamic voiding model in the OLINDA/EXM 1.0 dosimetry software. Finally, the Standard Adult mean organ dose equivalents (in mSv/MBq) and effective dose (also in mSv/MBq) were then calculated using OLIN DA/EXM 1.0.
Final calculation of radiation absorbed dose and dosimetry from biodistribution in mice: The tissues or organs in which a significant accumulation of radioactivity occurs (i.e., source organ) were kidney, spleen, lung, liver and heart. With respect to activity accumulation and clearance, a rapid clearance from blood and clearance to urine but relatively slow build-up in kidney was found.

[^19F][^natGa]D/L-Dap-R/S-DOTAGA-rhPSMA7 [rhPSMA7-rac]
Adrenals ED Cont.: 3.79E−05 mSv/MBq | Adrenals EDE Cont.: 0.00E000 mSv/MBq | Adrenals dose Alpha: 0.00E000 mSv/MBq | Adrenals dose Beta: 1.95E−03 mSv/MBq | Adrenals dose Photon: 5.64E−03 mSv/MBq | Adrenals dose Total: 7.59E−03 mSv/MBq | Brain ED Cont.: 2.24E−05 mSv/MBq | Brain EDE Cont.: 0.00E000 mSv/MBq | Brain dose Alpha: 0.00E000 mSv/MBq | Brain dose Beta: 1.95E−03 mSv/MBq | Brain dose Photon: 2.54E−03 mSv/MBq | Brain dose Total: 4.49E−03 mSv/MBq | Breasts ED Cont.: 2.10E−04 mSv/MBq | Breasts EDE Cont.: 6.30E−04 mSv/MBq | Breasts dose Alpha: 0.00E000 mSv/MBq | Breasts dose Beta: 1.95E−03 mSv/MBq | Breasts dose Photon: 2.25E−03 mSv/MBq | Breasts dose Total: 4.20E−03 mSv/MBq | Gallbladder Wall ED Cont.: 0.00E000 mSv/MBq | Gallbladder Wall EDE Cont.: 0.00E000 mSv/MBq | Gallbladder Wall dose Alpha: 0.00E000 mSv/MBq | Gallbladder Wall dose Beta: 1.95E−03 mSv/MBq | Gallbladder Wall dose Photon: 4.96E−03 mSv/MBq | Gallbladder Wall dose Total: 6.91E−03 mSv/MBq | Heart Wall ED Cont.: 0.00E000 mSv/MBq | Heart Wall EDE Cont.: 0.00E000 mSv/MBq | Heart Wall dose Alpha: 0.00E000 mSv/MBq | Heart Wall dose Beta: 8.82E−04 mSv/MBq | Heart Wall dose Photon: 3.48E−03 mSv/MBq | Heart Wall dose Total: 4.36E−03 mSv/MBq | Kidneys ED Cont.: 3.23E−04 mSv/MBq | Kidneys EDE Cont.: 3.88E−03 mSv/MBq | Kidneys dose Alpha: 0.00E000 mSv/MBq | Kidneys dose Beta: 4.70E−02 mSv/MBq | Kidneys dose Photon: 1.76E−02 mSv/MBq | Kidneys dose Total: 6.47E−02 mSv/MBq | LLI Wall ED Cont.: 1.10E−03 mSv/MBq | LLI Wall EDE Cont.: 5.52E−04 mSv/MBq | LLI Wall dose Alpha: 0.00E000 mSv/MBq | LLI Wall dose Beta: 1.95E−03 mSv/MBq | LLI Wall dose Photon: 7.25E−03 mSv/MBq | LLI Wall dose Total: 9.20E−03 mSv/MBq | Liver ED Cont.: 2.01E−04 mSv/MBq | Liver EDE Cont.: 0.00E000 mSv/MBq | Liver dose Alpha: 0.00E000 mSv/MBq | Liver dose Beta: 6.35E−04 mSv/MBq | Liver dose Photon: 3.39E−03 mSv/MBq | Liver dose Total: 4.02E−03 mSv/MBq | Lungs ED Cont.: 5.11E−04 mSv/MBq | Lungs EDE Cont.: 5.11E−04 mSv/MBq | Lungs dose Alpha: 0.00E000 mSv/MBq | Lungs dose Beta: 1.25E−03 mSv/MBq | Lungs dose Photon: 3.01E−03 mSv/MBq | Lungs dose Total: 4.26E−03 mSv/MBq | Muscle ED Cont.: 2.98E−05 mSv/MBq | Muscle EDE Cont.: 0.00E000 mSv/MBq | Muscle dose Alpha: 0.00E000 mSv/MBq | Muscle dose Beta: 1.95E−03 mSv/MBq | Muscle dose Photon: 4.01E−03 mSv/MBq | Muscle dose Total: 5.96E−03 mSv/MBq | Osteogenic Cells ED Cont.: 8.27E−05 mSv/MBq | Osteogenic Cells EDE Cont.: 2.48E−04 mSv/MBq | Osteogenic Cells dose Alpha: 0.00E000 mSv/MBq | Osteogenic Cells dose Beta: 4.18E−03 mSv/MBq | Osteogenic Cells dose Photon: 4.09E−03 mSv/MBq | Osteogenic Cells dose Total: 8.27E−03 mSv/MBq | Ovaries ED Cont.: 1.83E−03 mSv/MBq | Ovaries EDE Cont.: 2.29E−03 mSv/MBq | Ovaries dose Alpha: 0.00E000 mSv/MBq | Ovaries dose Beta: 1.95E−03 mSv/MBq | Ovaries dose Photon: 7.21E−03 mSv/MBq | Ovaries dose Total: 9.16E−03 mSv/MBq | Pancreas ED Cont.: 3.90E−05 mSv/MBq | Pancreas EDE Cont.: 0.00E000 mSv/MBq | Pancreas dose Alpha: 0.00E000 mSv/MBq | Pancreas dose Beta: 1.95E−03 mSv/MBq | Pancreas dose Photon: 5.86E−03 mSv/MBq | Pancreas dose Total: 7.80E−03 mSv/MBq | Red Marrow ED Cont.: 6.82E−04 mSv/MBq | Red Marrow EDE Cont.: 6.82E−04 mSv/MBq | Red Marrow dose Alpha: 0.00E000 mSv/MBq | Red Marrow dose Beta: 1.39E−03 mSv/MBq | Red Marrow dose Photon: 4.29E−03 mSv/MBq | Red Marrow dose Total: 5.68E−03 mSv/MBq | Skin ED Cont.: 4.32E−05 mSv/MBq | Skin EDE Cont.: 0.00E000 mSv/MBq | Skin dose Alpha: 0.00E000 mSv/MBq | Skin dose Beta: 1.95E−03 mSv/MBq | Skin dose Photon: 2.38E−03 mSv/MBq | Skin dose Total: 4.32E−03 mSv/MBq | Small Intestine ED Cont.: 3.87E−05 mSv/MBq | Small Intestine EDE Cont.: 0.00E000 mSv/MBq | Small Intestine dose Alpha: 0.00E000 mSv/MBq | Small Intestine dose Beta: 1.95E−03 mSv/MBq | Small Intestine dose Photon: 5.79E−03 mSv/MBq | Small Intestine dose Total: 7.73E−03 mSv/MBq | Spleen ED Cont.: 1.29E−04 mSv/MBq | Spleen EDE Cont.: 1.55E−03 mSv/MBq | Spleen dose Alpha: 0.00E000 mSv/MBq | Spleen dose Beta: 1.59E−02 mSv/MBq | Spleen dose Photon: 9.90E−03 mSv/MBq | Spleen dose Total: 2.58E−02 mSv/MBq | Stomach Wall ED Cont.: 7.98E−04 mSv/MBq | Stomach Wall EDE Cont.: 0.00E000 mSv/MBq | Stomach Wall dose Alpha: 0.00E000 mSv/MBq | Stomach Wall dose Beta: 1.95E−03 mSv/MBq | Stomach Wall dose Photon: 4.70E−03 mSv/MBq | Stomach Wall dose Total: 6.65E−03 mSv/MBq | Testes ED Cont.: 0.00E000 mSv/MBq | Testes EDE Cont.: 0.00E000 mSv/MBq | Testes dose Alpha: 0.00E000 mSv/MBq | Testes dose Beta: 1.95E−03 mSv/MBq | Testes dose Photon: 5.09E−03 mSv/MBq | Testes dose Total: 7.03E−03 mSv/MBq | Thymus ED Cont.: 2.57E−05 mSv/MBq | Thymus EDE Cont.: 0.00E000 mSv/MBq | Thymus dose Alpha: 0.00E000 mSv/MBq | Thymus dose Beta: 1.95E−03 mSv/MBq | Thymus dose Photon: 3.20E−03 mSv/MBq | Thymus dose Total: 5.15E−03 mSv/MBq | Thyroid ED Cont.: 2.59E−04 mSv/MBq | Thyroid EDE Cont.: 1.55E−04 mSv/MBq | Thyroid dose Alpha: 0.00E000 mSv/MBq | Thyroid dose Beta: 1.95E−03 mSv/MBq | Thyroid dose Photon: 3.23E−03 mSv/MBq | Thyroid dose Total: 5.17E−03 mSv/MBq | Total Body ED Cont.: 0.00E000 mSv/MBq | Total Body EDE Cont.: 0.00E000 mSv/MBq | Total Body dose Alpha: 0.00E000 mSv/MBq | Total Body dose Beta: 2.27E−03 mSv/MBq | Total Body dose Photon: 3.93E−03 mSv/MBq | Total Body dose Total: 6.19E−03 mSv/MBq | ULI Wall ED Cont.: 3.64E−05 mSv/MBq | ULI Wall EDE Cont.: 0.00E000 mSv/MBq | ULI Wall dose Alpha: 0.00E000 mSv/MBq | ULI Wall dose Beta: 1.95E−03 mSv/MBq | ULI Wall dose Photon: 5.33E−03 mSv/MBq | ULI Wall dose Total: 7.27E−03 mSv/MBq | Urinary Bladder Wall ED Cont.: 5.76E−03 mSv/MBq | Urinary Bladder Wall EDE Cont.: 6.92E−03 mSv/MBq | Urinary Bladder Wall dose Alpha: 0.00E000 mSv/MBq | Urinary Bladder Wall dose Beta: 7.87E−02 mSv/MBq | Urinary Bladder Wall dose Photon: 3.66E−02 mSv/MBq | Urinary Bladder Wall dose Total: 1.15 E−01 mSv/MBq | Uterus ED Cont.: 6.56E−05 mSv/MBq | Uterus EDE Cont.: 7.87E−04 mSv/MBq | Uterus dose Alpha: 0.00E000 mSv/MBq | Uterus dose Beta: 1.95E−03 mSv/MBq | Uterus dose Photon: 1.12E−02 mSv/MBq | Uterus dose Total: 1.31E−02 mSv/MBq
